The experiment has as its system LPS-induced TNFα production in human peripheral blood mononuclear cells (PBMCs). Kind of experiment: Inhibition of LPS-induced TNFα production in human peripheral blood mononuclear cells (AlphaLISA). The format is cell-based. Conditions: PBMC. The protocol:
Inhibition of Lipopolysaccharride (LPS)-Induced TNFα Production in Human Peripheral Blood Mononuclear Cells
Human isolated peripheral blood mononuclear cells (PBMCs) were pre-incubated with a range of concentrations of the GR agonist (1R,3aS,3bS,10aR,10bS,11S,12aS)-1-{[(cyanomethyl)sulfanyl]carbonyl}-7-(4-fluorophenyl)-11-hydroxy-10a,12a-dimethyl-1,2,3,3a,3b,4,5,7,10,10a,10b,11,12,12a-tetradecahydrocyclopenta[5,6]naphtho[1,2-f]indazol-1-yl furan-2-carboxylate (Compound A), alone or in the presence of a range of concentrations of a second compound with a distinct pharmacological activity for 45 minutes at 37° C. After the pre-incubation period, the cells were then incubated with LPS (5 ng/mL) for 18 hr at 37° C. to induce TNFα production. The total assay volume was 200 μL. At the end of the incubation period, 10 μL of the culture supernatant diluted 1:5 was analysed to quantify the TNFα released using AlphaLISA (PerkinElmer). The fluorescence was detected on an EnVision Alphareader. Inhibition curves were fitted using a 4-parameter logistic equation in a non-linear curve fitting routine and activity was expressed as pIC50.
In each table, the data represents the mean of two separate experiments using PBMC from healthy blood donors (n=2).

Molecules are shown by their SMILES.

As for `C[C@]12Cc3cnn(-c4ccc(F)cc4)c3C=C1CC[C@@H]1[C@@H]2[C@@H](O)C[C@@]2(C)[C@H]1CC[C@]2(OC(=O)c1ccco1)C(=O)SCC#N` [Compound A, (1R,3aS,3bS,10aR,10bS,11S,12aS)-1-{[(cyanomethyl)sulfanyl]carbonyl}-7-(4-fluorophenyl)-11-hydroxy-10a,12a-dimethyl-1,2,3,3a,3b,4,5,7,10,10a,10b,11,12,12a-tetradecahydrocyclopenta[5,6]naphtho[1,2-f]indazol-1-yl furan-2-carboxylate], the IC50 (read-out: pIC50 for inhibition of LPS-induced TNFα production from human PBMC (converted)) was 0.708 nM.

With `CNCCOc1ccccc1C1(Nc2nccn(-c3cc(C(=O)NC4CC4)cc(F)c3C)c2=O)CC1` [Compound E, N-cyclopropyl-3-fluoro-4-methyl-5-{3-[(1-{2-[2-(methylamino)ethoxy]phenyl}cyclopropyl)amino]-2-oxopyrazin-1(2H)-yl}benzamide], under “Compound A 1000 nM in combination with the listed second compound at 1 μM, mean n=2, read-out: % inhibition @ 1000 nM (maximal inhibition)”, the inhibition at 1 µM is 99.4%.

For the origin of these results see US20100261690A1, “NOVEL COMBINATIONS” (ASTRAZENECA R&D, priority 2009, published 2010).
